In patent US9803223B2, “Coryneform bacterium transformant with improved aniline productivity and process for producing aniline using the same” (RESEARCH INSTITUTE OF INNOVATIVE TECHNOLOGY FOR THE EARTH, priority 2013, dated 2017):
Entries after “also recorded” stand apart in the source; their conditions may differ.

Assays:
[1] = test system: Escherichia coli HST02; experiment: Growth inhibition experiment in aerobic culture, influence of aniline; assay type: cell-based; conditions: for growth of Escherichia coli HST02: aerobic culture 37° C., OD610
Method: A growth inhibition experiment in aerobic culture was performed to examine the influence of aniline on Escherichia coli.
Escherichia coli HST02 was applied to LB agar medium (1% polypeptone, 0.5% yeast extract, 0.5% NaCl and 1.5% agar) and was left stand in the dark at 37° C. for 15 hours.
An inoculation loop of the Escherichia coli HST02 grown on a plate as above was inoculated into a test tube containing 10 mL of LB liquid medium (1% polypeptone, 0.5% yeast extract, and 0.5% NaCl), and aerobic culture was performed with shaking at 37° C. for 13 hours.
The Escherichia coli HST02 grown in the above conditions was inoculated into 100 mL of LB liquid medium in such a way that the initial bacterial cell concentration would be OD610=0.1, aniline was added at the same time in such a way that the final concentration would be 0, 20, 40, 60, or 80 mM, and aerobic culture was performed with shaking at 37° C. The growth of the bacterial cells was determined by absorbance measurement at OD610. […] The vertical axis of FIG. 2 indicates OD610.

[2] = test system: Corynebacterium glutamicum R; experiment: Influence of aniline addition on aerobic growth; assay type: cell-based; conditions: for growth of Corynebacterium glutamicum: aerobic culture 33° C., OD610
Method: Corynebacterium glutamicum R was applied to A agar medium (2 g of (NH2)2CO3 7 g of (NH4)2SO4, 0.5 g of KH2PO4, 0.5 g of K2HPO4, 0.5 g of MgSO4.7H2O, 1 mL of 0.06% (w/v) Fe2SO4.7H2O+0.042% (w/v) MnSO4.2H2O, 1 mL of 0.02% (w/v) biotin solution, 2 mL of 0.01% (w/v) thiamin solution, 2 g of yeast extract, 7 g of vitamin assay casamino acid, 40 g of glucose, and 15 g of agar were suspended in 1 L of distilled water) and was left stand in the dark at 33° C. for 15 hours.
An inoculation loop of the Corynebacterium glutamicum R grown on a plate as above was inoculated into a test tube containing 10 mL of A liquid medium (2 g of (NH2)2CO3 7 g of (NH4)2SO4, 0.5 g of KH2PO4, 0.5 g of K2HPO4, 0.5 g of MgSO4.7H2O, 1 mL of 0.06% (w/v) Fe2SO4.7H2O+0.042% (w/v) MnSO4.2H2O, 1 mL of 0.02% (w/v) biotin solution, 2 mL of 0.01% (w/v) thiamin solution, 2 g of yeast extract, 7 g of vitamin assay casamino acid, and 40 g of glucose were suspended in 1 L of distilled water) and was aerobically cultured with shaking at 33° C. for 15 hours.
The Corynebacterium glutamicum R grown in the above conditions was inoculated into 10 mL of A liquid medium in such a way that the initial bacterial cell concentration would be OD610=0.1, aniline was added at the same time in such a way that the final concentration would be 0, 20, 40, 60, or 80 mM, and aerobic culture was performed with shaking at 33° C. The growth of the bacterial cells was determined by absorbance measurement at OD610.
The vertical axis of FIG. 3 indicates OD610.

Compound: Nc1ccccc1 [aniline]
- growth of Escherichia coli HST02 ([1]; 20 mM aniline): notably inhibited
- growth of Escherichia coli HST02 ([1]; 40 mM aniline): significantly inhibited; also recorded: significantly affected
- growth of Escherichia coli HST02 ([1]; 60 mM aniline): completely inhibited
- growth of Escherichia coli ([1]; aniline level of 20 mM or higher, aerobic culture): greatly affected
- growth of Corynebacterium glutamicum ([2]; 40 mM aniline): hardly affected
- growth of Corynebacterium glutamicum ([2]; 60 mM aniline): able to grow
- growth of coryneform bacterium ([2]; aniline level increased up to 60 mM, aerobic culture): can grow
